Values quoted from earlier work as cited in patent US12673064B2, “Biodegradable drug-polymer conjugate” (POLYACTIVA PTY LTD, priority 2019, dated 2026).

How the values were obtained:
[1] = system: monkeys
[2] = 0.002% dosage, week 1

Row | SMILES | IOP and total outflow resistance [1] | uveoscleral outflow or aqueous flow [1] | effectiveness versus latanoprost 0.005% [2]
1 | CCCCC[C@H](O)/C=C/[C@H]1[C@H](O)CC(=O)[C@@H]1SCCCSCC(=O)O [3,7-dithia-PGE1] | reduced | without affecting | –
2 | CC(C)OC(=O)CNc1cccc(CN(Cc2ccc(-n3cccn3)cc2)S(=O)(=O)c2cccnc2)n1 [Omidenepag isopropyl] | – | – | more effective than latanoprost 0.005%
